pIC50: −log10 of the molar value. In brackets after ≈: the same amount, converted by molar mass. Activity calls are given as the source filed them. No cut-off for these calls is given here.
How the values were obtained:
[1] = test system: Vero; assay: Cytotoxicity against African green monkey Vero cells assessed as reduction in cell viability at 383.2 uM after 18 hrs by XTT assay relative to control; format: cell-based; details: chlorocebus sabaeus
[2] = test system: Candida albicans; assay: Antifungal activity against Candida albicans ATCC 90028 assessed as reduction in cell growth after 48 to 72 hrs by M27-A3 protocol based method; format: functional
[3] = Toxicity in Galleria mellonella larvae assessed as movement melanization at 47.9 uM measured after 18 hrs (reference value: 0%)
[4] = Toxicity in Galleria mellonella larvae assessed as cocoon formation at 47.9 uM measured after 48 hrs (reference value: 100 +/- 0%)
[5] = Toxicity in Galleria mellonella larvae assessed as movement melanization at 47.9 uM measured after 48 hrs (reference value: 0%)
[6] = test system: Candida albicans; assay: Antifungal activity against Candida albicans ATCC 90028 assessed as planktonic growth inhibition at 0.4 uM after 48 hrs by M27-A3 protocol based method relative to control; format: functional; details: ATCC 90028, 48 h, read-out: GI
[7] = test system: Candida albicans; assay: Antifungal activity against Candida albicans ATCC 90028 assessed as planktonic growth inhibition at 1.5 uM after 48 hrs by M27-A3 protocol based method relative to control; format: functional; details: ATCC 90028, 48 h, read-out: GI
[8] = test system: Candida albicans; assay: Antifungal activity against Candida albicans ATCC 90028 assessed as planktonic growth inhibition at 3 uM after 48 hrs by M27-A3 protocol based method relative to control; format: functional; details: ATCC 90028, 48 h, read-out: GI
[9] = Toxicity in Galleria mellonella larvae assessed as survival rate at 47.9 uM measured after 18 hrs (reference value: 100%)
[10] = test system: Candida albicans; assay: Antifungal activity against Candida albicans ATCC 90028 assessed as planktonic growth inhibition at 47.9 uM after 48 hrs by M27-A3 protocol based method relative to control; format: functional; details: ATCC 90028, 48 h, read-out: GI
[11] = Toxicity in Galleria mellonella larvae assessed as survival rate at 47.9 uM measured after 48 hrs (reference value: 100%)
[12] = test system: Candida albicans; assay: Induction of reactive oxygen species generation in Candida albicans ATCC 90028 assessed as ROS level at 47.9 uM after 18 hrs by DCFDA probe based flow cytometry (reference value: 0.3%); format: functional
[13] = test system: Candida albicans; assay: Antifungal activity against Candida albicans ATCC 90028 assessed as planktonic growth inhibition at 0.7 uM after 48 hrs by M27-A3 protocol based method relative to control; format: functional; details: ATCC 90028, 48 h, read-out: GI
[14] = test system: Candida albicans; assay: Antibiofilm activity against Candida albicans ATCC 90028 assessed as inhibition of biofilm formation […] after 24 hrs by XTT assay relative to control; format: functional, organism-based; details: ATCC 90028, 24 h
[15] = test system: Candida albicans; assay: Antifungal activity against Candida albicans ATCC 90028 assessed as planktonic growth inhibition at 0.2 uM after 48 hrs by M27-A3 protocol based method relative to control; format: functional; details: ATCC 90028, 48 h, read-out: GI
[16] = Toxicity in Galleria mellonella larvae assessed as cocoon formation at 47.9 uM measured after 48 hrs (reference value: 85 +/- 5%)
[17] = Toxicity in Galleria mellonella larvae assessed as survival rate at 47.9 uM measured after 120 hrs (reference value: 100%)
[18] = test system: Candida albicans; assay: Antifungal activity against Candida albicans ATCC 90028 assessed as reduction in cell growth after 48 to 72 hrs in presence of ergosterol by M27-A3 protocol based method; format: functional
[19] = Toxicity in Galleria mellonella larvae assessed as movement melanization at 47.9 uM measured after 128 hrs (reference value: 0%)
[20] = test system: Candida albicans; assay: Antifungal activity against Candida albicans ATCC 90028 assessed as planktonic growth inhibition at 12 uM after 48 hrs by M27-A3 protocol based method relative to control; format: functional; details: ATCC 90028, 48 h, read-out: GI
[21] = test system: Candida albicans; assay: Antifungal activity against Candida albicans ATCC 90028 assessed as planktonic growth inhibition at 23.9 uM after 48 hrs by M27-A3 protocol based method relative to control; format: functional; details: ATCC 90028, 48 h, read-out: GI
[22] = Toxicity in Galleria mellonella larvae assessed as cocoon formation at 47.9 uM measured after 18 hrs (reference value: 60 +/- 20%)
[23] = test system: Candida albicans; assay: Fungicidal activity against Candida albicans ATCC 90028 assessed as log reduction in fungal load incubated for 48 hrs followed by replating on sabouraud dextrose agar plate and measured after 48 hrs; format: functional
[24] = test system: Candida albicans; assay: Induction of Candida albicans ATCC 90028 internalization in mouse RAW264.7 cells assessed as reduction in fungus-induced cell damage by measuring live and early apoptotic cells at 47.9 uM after 2 hrs acridine orange/ethidium bromide staining based confocal scanning microscopic analysis; format: functional, organism-based
[25] = test system: Candida albicans; assay: Antifungal activity against Candida albicans ATCC 90028 assessed as planktonic growth inhibition at 0.09 uM after 48 hrs by M27-A3 protocol based method relative to control; format: functional; details: ATCC 90028, 48 h, read-out: GI
[26] = test system: Candida albicans; assay: Antifungal activity against Candida albicans ATCC 90028 assessed as planktonic growth inhibition at 6 uM after 48 hrs by M27-A3 protocol based method relative to control; format: functional; details: ATCC 90028, 48 h, read-out: GI
[27] = Selectivity index, ratio of CC50 for African green monkey Vero cells to IC50 for Candida albicans ATCC 90028; format: toxicity; details: read-out: Ratio CC50/IC50
[28] = test system: Candida albicans; assay: Inhibition of Candida albicans ATCC 90028 cell adhesion to human TR146 cells at reduction in cell adherence at 47.9 uM relative to control; format: functional; details: ATCC 90028, TR146
[29] = test system: Candida albicans; assay: Antifungal activity against Candida albicans ATCC 90028 assessed as planktonic growth inhibition at 2.49 uM after 48 hrs by M27-A3 protocol based method relative to control; format: functional; details: ATCC 90028, 48 h, read-out: GI
[30] = test system: Candida albicans; assay: Antifungal activity against Candida albicans ATCC 90028 assessed as planktonic growth inhibition at 4.97 uM after 48 hrs by M27-A3 protocol based method relative to control; format: functional; details: ATCC 90028, 48 h, read-out: GI
[31] = test system: Vero; assay: Cytotoxicity against African green monkey Vero cells assessed as reduction in cell viability at 318.16 uM after 18 hrs by XTT assay relative to control; format: cell-based; details: chlorocebus sabaeus
[32] = test system: Candida albicans; assay: Antifungal activity against Candida albicans ATCC 90028 assessed as planktonic growth inhibition at 0.62 uM after 48 hrs by M27-A3 protocol based method relative to control; format: functional; details: ATCC 90028, 48 h, read-out: GI
[33] = test system: Candida albicans; assay: Antifungal activity against Candida albicans ATCC 90028 assessed as planktonic growth inhibition at 9.94 uM after 48 hrs by M27-A3 protocol based method relative to control; format: functional; details: ATCC 90028, 48 h, read-out: GI
[34] = test system: Candida albicans; assay: Antifungal activity against Candida albicans ATCC 90028 assessed as planktonic growth inhibition at 0.16 uM after 48 hrs by M27-A3 protocol based method relative to control; format: functional; details: ATCC 90028, 48 h, read-out: GI
[35] = test system: Candida albicans; assay: Antifungal activity against Candida albicans ATCC 90028 assessed as planktonic growth inhibition at 1.24 uM after 48 hrs by M27-A3 protocol based method relative to control; format: functional; details: ATCC 90028, 48 h, read-out: GI
[36] = test system: Candida albicans; assay: Antifungal activity against Candida albicans ATCC 90028 assessed as planktonic growth inhibition at 39.77 uM after 48 hrs by M27-A3 protocol based method relative to control; format: functional; details: ATCC 90028, 48 h, read-out: GI
[37] = test system: Candida albicans; assay: Induction of Candida albicans ATCC 90028 internalization in mouse RAW264.7 cells assessed as reduction in fungus-induced cell damage by measuring live and early apoptotic cells at 39.77 uM after 2 hrs acridine orange/ethidium bromide staining based confocal scanning microscopic analysis; format: functional, organism-based
[38] = test system: Candida albicans; assay: Antifungal activity against Candida albicans ATCC 90028 assessed as planktonic growth inhibition at 0.31 uM after 48 hrs by M27-A3 protocol based method relative to control; format: functional; details: ATCC 90028, 48 h, read-out: GI
[39] = test system: Candida albicans; assay: Antifungal activity against Candida albicans ATCC 90028 assessed as planktonic growth inhibition at 0.08 uM after 48 hrs by M27-A3 protocol based method relative to control; format: functional; details: ATCC 90028, 48 h, read-out: GI
[40] = test system: Candida albicans; assay: Antifungal activity against Candida albicans ATCC 90028 assessed as planktonic growth inhibition at 19.88 uM after 48 hrs by M27-A3 protocol based method relative to control; format: functional; details: ATCC 90028, 48 h, read-out: GI

c1ccc(-c2nnn(CCCN3CCCC3c3ccccc3)n2)cc1 (stereo not drawn) gave an Activity [1] of 100%, an MIC [2] of 11.9 µM (≈ 3.97 µg/mL) and an Activity [3] of 0%. The Activity [4] was 93%, the Activity [5] was 0% and the inhibition of growth at 0.4 µM [6] was 99.3%. It also gave an inhibition of growth at 1.5 µM [7] of 99.3%, an inhibition of growth at 3 µM [8] of 99.3% and a survival at 18 h, 47.9 µM [9] of 100%. The inhibition of growth at 47.9 µM [10] was 99.2%, the survival at 48 h, 47.9 µM [11] was 100% and the Activity [12] was 12 - 16%. It also gave an inhibition of growth at 0.7 µM [13] of 99.2%, a pIC50 [14] of 4.62 and an inhibition of growth at 0.2 µM [15] of 99.3%. The Activity [16] was 77%, the survival at 120 h, 47.9 µM [17] was 97% and the MIC [18] was 23.9 µM. The Activity [19] was 0%, the inhibition of growth at 12 µM [20] was 99.4% and the inhibition of growth at 23.9 µM [21] was 99.3%. For the same compound, the Activity [22] was 67%, the “log(activity)” value [23] was -0.4 and the Activity [24] was “Active”. It also gave an inhibition of growth at 0.09 µM [25] of 99.2%, an inhibition of growth at 6 µM [26] of 99.3% and a selectivity ratio [27] of 2. For the same compound, the inhibition at 47.9 µM [28] was greater than 95%.

Work on Clc1ccc(-c2nnn(CCCN3CCCC3c3ccc(Cl)cc3)n2)cc1 (stereo not drawn) yielded an inhibition of growth at 2.49 µM [29] of 99.7%, an inhibition of growth at 4.97 µM [30] of 99.3% and an Activity [31] of 100%. It also gave an inhibition of growth at 0.62 µM [32] of 99.5%, an inhibition of growth at 9.94 µM [33] of 99.3% and an inhibition of growth at 0.16 µM [34] of 99.5%. For the same compound, the pIC50 [14] was 4.10, the inhibition of growth at 1.24 µM [35] was 99% and the inhibition of growth at 39.77 µM [36] was 99.6%. For the same compound, the Activity [37] was “Active”, the inhibition of growth at 0.31 µM [38] was 99.2% and the “log(activity)” value [23] was -1.4. It also gave an inhibition of growth at 0.08 µM [39] of 99.6%, a selectivity ratio [27] of 2 and an inhibition of growth at 19.88 µM [40] of 99.3%.

Reference: ChEMBL document CHEMBL4411303, “Synthesis of tetrazole derivatives bearing pyrrolidine scaffold and evaluation of their antifungal activity against Candida albicans” (Eur J Med Chem, 2019)
